Tests used:
[1] = target: T1, Serine/threonine-protein kinase LATS1 (Homo sapiens) (UniProt O95835); assay: Selectivity interaction (Ambit KINOMEscan and KiNATiv profiling in Jurkat cells) EUB0000090b LATS1; assay type: cell-based; conditions: at 1 µM
T1 sequence (whole entry): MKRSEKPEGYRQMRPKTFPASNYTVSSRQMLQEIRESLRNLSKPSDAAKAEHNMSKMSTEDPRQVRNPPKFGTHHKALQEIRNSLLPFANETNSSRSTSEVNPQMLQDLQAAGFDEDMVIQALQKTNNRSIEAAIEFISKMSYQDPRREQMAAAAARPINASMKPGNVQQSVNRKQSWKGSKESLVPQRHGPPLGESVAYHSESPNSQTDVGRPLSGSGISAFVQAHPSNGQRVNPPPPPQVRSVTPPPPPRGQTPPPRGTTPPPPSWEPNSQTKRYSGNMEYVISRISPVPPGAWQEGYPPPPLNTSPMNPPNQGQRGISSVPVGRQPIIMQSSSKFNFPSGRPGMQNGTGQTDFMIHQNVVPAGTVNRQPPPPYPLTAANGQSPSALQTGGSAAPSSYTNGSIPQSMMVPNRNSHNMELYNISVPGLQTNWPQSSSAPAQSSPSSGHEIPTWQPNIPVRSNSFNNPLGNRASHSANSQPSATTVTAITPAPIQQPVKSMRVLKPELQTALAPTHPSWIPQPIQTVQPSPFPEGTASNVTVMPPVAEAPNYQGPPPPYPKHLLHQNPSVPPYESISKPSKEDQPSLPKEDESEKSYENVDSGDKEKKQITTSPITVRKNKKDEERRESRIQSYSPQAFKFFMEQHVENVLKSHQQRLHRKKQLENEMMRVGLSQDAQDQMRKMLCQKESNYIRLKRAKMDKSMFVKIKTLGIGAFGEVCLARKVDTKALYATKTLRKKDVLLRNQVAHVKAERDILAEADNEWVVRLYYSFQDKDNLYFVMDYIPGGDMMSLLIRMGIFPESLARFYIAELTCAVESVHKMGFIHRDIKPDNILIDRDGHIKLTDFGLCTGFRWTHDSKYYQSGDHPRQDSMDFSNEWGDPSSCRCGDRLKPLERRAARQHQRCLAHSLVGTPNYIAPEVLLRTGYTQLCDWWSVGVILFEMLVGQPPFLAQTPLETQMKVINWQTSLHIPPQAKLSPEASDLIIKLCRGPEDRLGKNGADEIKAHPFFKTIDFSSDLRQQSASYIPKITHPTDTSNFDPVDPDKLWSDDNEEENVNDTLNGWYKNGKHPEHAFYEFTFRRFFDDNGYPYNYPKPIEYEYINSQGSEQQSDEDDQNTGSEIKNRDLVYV

[2] = target: T2, Scaffold protein ILK (Homo sapiens) (UniProt Q13418); assay: Selectivity interaction (ActivX KiNativ screen (kinase selectivity in THP-1 cell lysates)) EUB0000639a ILK; assay type: subcellular; conditions: lysate, at 1 µM
T2 sequence (whole entry): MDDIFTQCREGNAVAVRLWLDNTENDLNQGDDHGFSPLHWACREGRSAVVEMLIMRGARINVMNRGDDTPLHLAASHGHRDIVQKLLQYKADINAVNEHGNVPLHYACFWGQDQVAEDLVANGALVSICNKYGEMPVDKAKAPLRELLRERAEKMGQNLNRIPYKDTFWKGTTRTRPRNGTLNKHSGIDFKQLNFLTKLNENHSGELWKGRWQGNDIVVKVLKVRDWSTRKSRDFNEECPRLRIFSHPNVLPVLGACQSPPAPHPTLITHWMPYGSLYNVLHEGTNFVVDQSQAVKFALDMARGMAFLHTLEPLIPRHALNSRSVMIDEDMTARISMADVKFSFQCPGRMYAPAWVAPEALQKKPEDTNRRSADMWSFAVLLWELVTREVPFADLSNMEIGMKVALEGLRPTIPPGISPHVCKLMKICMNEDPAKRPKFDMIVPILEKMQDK

[3] = target: Mitogen-activated protein kinase kinase kinase 11 (Homo sapiens) (UniProt Q16584); assay: Selectivity interaction (ActivX KiNativ screen (kinase selectivity in THP-1 cell lysates)) EUB0000639a MAP3K11; assay type: subcellular; conditions: lysate, at 1 µM
[4] = target: T3, Mixed lineage kinase domain-like protein (Homo sapiens) (UniProt Q8NB16); assay: Selectivity interaction (ActivX KiNativ screen (kinase selectivity in THP-1 cell lysates)) EUB0000639a MLKL; assay type: subcellular; conditions: lysate
T3 sequence (whole entry): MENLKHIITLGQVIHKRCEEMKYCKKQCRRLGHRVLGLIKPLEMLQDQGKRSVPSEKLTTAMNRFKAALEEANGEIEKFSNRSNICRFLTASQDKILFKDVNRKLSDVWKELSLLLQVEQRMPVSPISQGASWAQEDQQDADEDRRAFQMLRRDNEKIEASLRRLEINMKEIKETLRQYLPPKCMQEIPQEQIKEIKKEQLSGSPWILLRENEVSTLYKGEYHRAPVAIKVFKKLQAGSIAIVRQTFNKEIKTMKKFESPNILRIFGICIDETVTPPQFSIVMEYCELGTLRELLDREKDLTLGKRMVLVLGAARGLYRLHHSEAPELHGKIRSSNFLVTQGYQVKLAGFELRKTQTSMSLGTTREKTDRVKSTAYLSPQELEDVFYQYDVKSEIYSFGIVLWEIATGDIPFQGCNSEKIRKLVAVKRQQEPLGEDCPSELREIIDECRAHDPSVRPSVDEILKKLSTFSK

[5] = system: Epidermal growth factor receptor (Homo sapiens), P00533 [L858R,T790M]; assay: (§1) Selectivity interaction (KinomeScan (DiscoverX)) EUB0000229b EGFR; conditions: at 1 µM
[6] = system: Epidermal growth factor receptor (Homo sapiens), P00533 [L858R]; assay: as §1; conditions: at 1 µM
Sequence of Epidermal growth factor receptor (Homo sapiens), P00533 [L858R] (P00533 whole entry L858R): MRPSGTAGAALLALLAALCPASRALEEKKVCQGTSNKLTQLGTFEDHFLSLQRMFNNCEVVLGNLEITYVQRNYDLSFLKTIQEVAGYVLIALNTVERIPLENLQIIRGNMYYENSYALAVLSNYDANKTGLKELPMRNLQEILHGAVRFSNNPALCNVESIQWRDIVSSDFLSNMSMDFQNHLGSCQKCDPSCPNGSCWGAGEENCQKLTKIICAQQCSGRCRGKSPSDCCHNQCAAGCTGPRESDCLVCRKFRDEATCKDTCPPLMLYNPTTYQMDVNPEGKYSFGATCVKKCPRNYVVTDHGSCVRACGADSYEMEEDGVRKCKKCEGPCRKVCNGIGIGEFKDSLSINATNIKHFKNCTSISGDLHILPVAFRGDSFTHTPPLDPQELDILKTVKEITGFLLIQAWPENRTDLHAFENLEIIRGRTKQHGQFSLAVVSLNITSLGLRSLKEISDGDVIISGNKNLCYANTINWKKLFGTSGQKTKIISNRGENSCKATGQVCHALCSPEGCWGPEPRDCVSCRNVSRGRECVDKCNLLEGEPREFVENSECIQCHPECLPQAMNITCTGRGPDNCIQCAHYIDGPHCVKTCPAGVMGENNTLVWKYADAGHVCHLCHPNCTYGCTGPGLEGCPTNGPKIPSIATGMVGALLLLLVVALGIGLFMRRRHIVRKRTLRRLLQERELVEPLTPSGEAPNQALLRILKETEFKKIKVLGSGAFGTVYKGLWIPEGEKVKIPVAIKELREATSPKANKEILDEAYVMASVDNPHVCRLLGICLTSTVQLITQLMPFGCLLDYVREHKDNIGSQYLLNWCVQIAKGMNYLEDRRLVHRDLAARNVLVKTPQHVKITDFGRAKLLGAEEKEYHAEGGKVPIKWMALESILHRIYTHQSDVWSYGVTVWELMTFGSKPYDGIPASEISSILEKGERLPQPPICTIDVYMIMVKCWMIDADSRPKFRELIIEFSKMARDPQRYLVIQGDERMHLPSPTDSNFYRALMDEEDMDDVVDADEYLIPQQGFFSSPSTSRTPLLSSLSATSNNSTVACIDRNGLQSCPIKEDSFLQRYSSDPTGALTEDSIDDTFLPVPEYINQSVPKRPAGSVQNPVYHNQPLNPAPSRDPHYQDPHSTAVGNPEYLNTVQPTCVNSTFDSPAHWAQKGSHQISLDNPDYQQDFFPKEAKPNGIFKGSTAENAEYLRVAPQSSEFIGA

[7] = system: Epidermal growth factor receptor (Homo sapiens), P00533 [L861Q]; assay: as §1; conditions: at 1 µM
Sequence of Epidermal growth factor receptor (Homo sapiens), P00533 [L861Q] (P00533 whole entry L861Q): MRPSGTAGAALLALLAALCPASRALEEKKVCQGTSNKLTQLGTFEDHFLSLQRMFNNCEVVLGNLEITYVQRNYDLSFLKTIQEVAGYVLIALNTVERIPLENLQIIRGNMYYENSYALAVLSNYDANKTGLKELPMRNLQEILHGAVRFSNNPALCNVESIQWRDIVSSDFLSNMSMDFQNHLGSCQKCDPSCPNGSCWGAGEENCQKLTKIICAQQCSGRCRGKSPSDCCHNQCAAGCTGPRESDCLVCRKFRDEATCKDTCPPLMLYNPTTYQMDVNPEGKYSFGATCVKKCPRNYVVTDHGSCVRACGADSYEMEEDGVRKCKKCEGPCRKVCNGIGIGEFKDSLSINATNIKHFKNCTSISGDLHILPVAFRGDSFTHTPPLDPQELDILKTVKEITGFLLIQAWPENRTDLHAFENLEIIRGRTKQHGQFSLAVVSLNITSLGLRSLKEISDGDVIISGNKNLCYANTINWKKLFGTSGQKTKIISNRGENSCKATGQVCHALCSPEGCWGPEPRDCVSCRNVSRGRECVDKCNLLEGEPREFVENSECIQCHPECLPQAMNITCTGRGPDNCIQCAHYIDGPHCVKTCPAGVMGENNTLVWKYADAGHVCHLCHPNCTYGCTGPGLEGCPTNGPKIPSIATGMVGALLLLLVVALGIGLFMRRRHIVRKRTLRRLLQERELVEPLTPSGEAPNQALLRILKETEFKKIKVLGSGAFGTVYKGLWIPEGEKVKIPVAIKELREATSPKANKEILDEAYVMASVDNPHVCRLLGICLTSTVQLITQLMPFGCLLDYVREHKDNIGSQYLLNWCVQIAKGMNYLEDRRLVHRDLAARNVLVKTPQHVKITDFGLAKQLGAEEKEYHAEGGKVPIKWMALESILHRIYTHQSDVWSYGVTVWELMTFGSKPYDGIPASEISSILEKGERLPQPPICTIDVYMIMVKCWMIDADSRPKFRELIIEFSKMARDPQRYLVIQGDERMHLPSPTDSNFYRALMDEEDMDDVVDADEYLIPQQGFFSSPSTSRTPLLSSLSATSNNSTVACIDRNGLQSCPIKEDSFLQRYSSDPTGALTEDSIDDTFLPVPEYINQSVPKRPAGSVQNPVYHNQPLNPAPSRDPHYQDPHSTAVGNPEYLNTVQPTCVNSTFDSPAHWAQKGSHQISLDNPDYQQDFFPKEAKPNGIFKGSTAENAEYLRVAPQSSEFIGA

[8] = system: Epidermal growth factor receptor (Homo sapiens), P00533 [T790M]; assay: as §1; conditions: at 1 µM
Sequence of Epidermal growth factor receptor (Homo sapiens), P00533 [T790M] (P00533 whole entry T790M): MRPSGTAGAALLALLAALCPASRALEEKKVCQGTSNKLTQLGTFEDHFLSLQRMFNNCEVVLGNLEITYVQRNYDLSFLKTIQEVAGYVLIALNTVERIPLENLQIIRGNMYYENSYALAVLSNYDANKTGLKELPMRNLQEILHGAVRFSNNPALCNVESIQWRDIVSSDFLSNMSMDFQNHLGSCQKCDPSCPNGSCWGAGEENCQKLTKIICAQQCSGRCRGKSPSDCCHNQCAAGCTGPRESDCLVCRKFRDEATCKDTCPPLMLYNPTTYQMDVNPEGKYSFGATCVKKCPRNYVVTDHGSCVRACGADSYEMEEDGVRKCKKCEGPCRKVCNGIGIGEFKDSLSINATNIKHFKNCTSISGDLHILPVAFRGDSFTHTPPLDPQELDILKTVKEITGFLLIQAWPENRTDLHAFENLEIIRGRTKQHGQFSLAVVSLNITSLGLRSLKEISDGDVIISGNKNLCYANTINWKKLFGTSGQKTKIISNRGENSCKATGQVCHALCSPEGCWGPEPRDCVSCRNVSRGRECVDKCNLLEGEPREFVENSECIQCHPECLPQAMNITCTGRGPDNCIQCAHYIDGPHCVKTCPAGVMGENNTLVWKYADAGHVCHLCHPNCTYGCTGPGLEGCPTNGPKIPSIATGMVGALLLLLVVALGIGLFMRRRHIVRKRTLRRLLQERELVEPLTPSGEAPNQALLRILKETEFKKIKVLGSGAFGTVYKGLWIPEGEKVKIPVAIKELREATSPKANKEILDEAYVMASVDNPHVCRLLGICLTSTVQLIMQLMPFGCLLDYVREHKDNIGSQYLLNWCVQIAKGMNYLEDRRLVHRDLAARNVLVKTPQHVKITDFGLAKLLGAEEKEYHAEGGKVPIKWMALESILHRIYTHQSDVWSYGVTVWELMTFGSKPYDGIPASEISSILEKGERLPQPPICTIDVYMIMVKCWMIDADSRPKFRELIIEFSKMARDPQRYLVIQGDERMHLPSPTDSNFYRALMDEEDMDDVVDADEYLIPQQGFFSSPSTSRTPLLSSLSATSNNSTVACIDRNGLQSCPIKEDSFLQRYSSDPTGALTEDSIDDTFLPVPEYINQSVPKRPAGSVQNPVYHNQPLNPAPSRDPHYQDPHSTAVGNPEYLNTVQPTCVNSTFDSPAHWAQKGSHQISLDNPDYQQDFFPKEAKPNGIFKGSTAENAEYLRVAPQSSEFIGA

[9] = target: Epidermal growth factor receptor (Homo sapiens, UniProt P00533); assay: as §1; conditions: at 10 µM
Sequence of Epidermal growth factor receptor (P00533 whole entry): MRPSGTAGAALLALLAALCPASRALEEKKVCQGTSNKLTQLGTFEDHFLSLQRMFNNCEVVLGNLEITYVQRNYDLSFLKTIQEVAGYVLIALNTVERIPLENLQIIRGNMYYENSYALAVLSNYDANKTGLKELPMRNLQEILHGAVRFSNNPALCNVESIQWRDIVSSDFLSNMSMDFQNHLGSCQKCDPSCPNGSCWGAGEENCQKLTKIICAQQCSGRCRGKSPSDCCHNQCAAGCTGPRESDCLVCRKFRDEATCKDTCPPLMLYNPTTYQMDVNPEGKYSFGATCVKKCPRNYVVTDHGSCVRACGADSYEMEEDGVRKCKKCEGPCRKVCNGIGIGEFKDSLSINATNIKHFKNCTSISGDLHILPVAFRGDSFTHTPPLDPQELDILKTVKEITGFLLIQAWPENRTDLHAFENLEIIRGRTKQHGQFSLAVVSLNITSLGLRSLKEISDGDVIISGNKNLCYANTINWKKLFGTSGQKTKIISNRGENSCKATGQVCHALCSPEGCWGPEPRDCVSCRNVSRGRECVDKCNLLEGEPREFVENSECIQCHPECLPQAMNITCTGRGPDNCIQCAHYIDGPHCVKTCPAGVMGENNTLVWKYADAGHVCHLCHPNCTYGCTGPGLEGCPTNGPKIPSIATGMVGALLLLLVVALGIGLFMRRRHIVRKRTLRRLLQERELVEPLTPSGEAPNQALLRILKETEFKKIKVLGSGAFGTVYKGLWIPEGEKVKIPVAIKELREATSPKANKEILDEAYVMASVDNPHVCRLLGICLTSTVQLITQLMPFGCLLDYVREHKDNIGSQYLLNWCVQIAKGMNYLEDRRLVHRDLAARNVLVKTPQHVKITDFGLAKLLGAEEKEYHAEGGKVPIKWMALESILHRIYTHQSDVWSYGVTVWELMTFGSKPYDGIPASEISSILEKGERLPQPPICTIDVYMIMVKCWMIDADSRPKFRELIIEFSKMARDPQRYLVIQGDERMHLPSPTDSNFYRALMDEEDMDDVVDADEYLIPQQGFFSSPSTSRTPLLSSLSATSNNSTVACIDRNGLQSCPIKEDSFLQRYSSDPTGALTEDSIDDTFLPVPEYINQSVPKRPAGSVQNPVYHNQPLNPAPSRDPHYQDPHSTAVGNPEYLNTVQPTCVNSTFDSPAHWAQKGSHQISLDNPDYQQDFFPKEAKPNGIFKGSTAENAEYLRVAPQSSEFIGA

[10] = target: Homeodomain-interacting protein kinase 2 (Homo sapiens, UniProt Q9H2X6); assay: Selectivity interaction (KinomeScan (DiscoverX)) EUB0001619a HIPK2; conditions: at 1 µM

CN(C)C/C=C/C(=O)Nc1ccc(C(=O)N2CCCC(Nc3ncc(Cl)c(-c4c[nH]c5ccccc45)n3)C2)cc1 (centres undefined)
% of control [1]: 84%

CC[C@@H]1[C@H](F)C(=O)N[C@@H]1COc1nccc2cc(C(N)=O)c(OC)cc12 [ZIMLOVISERTIB]
% of inhibition [2]: -17.5% | % of inhibition [3]: -22.3% | % of inhibition ([4]; at 0.01 µM): -3.7% | % of inhibition ([4]; at 0.04 µM): 7.2% | % of inhibition ([4]; at 0.2 µM): 16.3% | % of inhibition ([4]; at 1 µM): 42.3% | % of inhibition ([4]; at 5 µM): 76.6%

COc1cc(N(C)c2ccnc3ccc(C(F)(F)F)cc23)cc(OC)c1OC
% binding [5]: 86% | % binding [6]: 99% | % binding [7]: 97% | % binding [8]: 100% | % binding [9]: 96%

N#Cc1cccc(-c2c[nH]c3ncnc(N4CCOCC4)c23)c1
% of control [10]: 65%

Source: ChEMBL document CHEMBL5465560, “Selectivity Literature for EUbOPEN Chemogenomic Library” (2024)
